From ChEMBL document CHEMBL3865811, “Synthesis and biological activities of d-chiro-inositol analogues with insulin-like actions” (2016) come the findings set out here.

Test [1] relates to 3T3-L1. The test can be described thus: Induction of 2-deoxy-D-[2,6-3H]glucose uptake in differentiated mouse 3T3L1 cells at 200 uM after 60 mins by liquid scintillation counting relative to basal uptake. Type of test: functional.
Test [2] has as its system 3T3-L1. The test can be described thus: Induction of 2-deoxy-D-[2,6-3H]glucose uptake in differentiated mouse 3T3L1 cells at 200 uM after 60 mins by liquid scintillation counting relative to insulin. Type of test: functional.

For `OC1[C@@H](O)[C@H](O)C[C@@H](O)[C@@H]1O` (stereo partly specified), the “fold change (FC)” value with 3T3-L1 [1] was 0.5. Also, in the test with 3T3-L1 [2], the Activity is given as -106%.

As to `CCCCO[C@H]1[C@@H](O)[C@H](O)[C@H](O)[C@@H](O)[C@@H]1O`, the “fold change (FC)” value in the test with 3T3-L1 [1] worked out at 1.4. For the same compound, the Activity in the test on 3T3-L1 [2] came to 22%.

Take `CCCC(=O)O[C@H]1[C@H](O)[C@@H](O)[C@@H](O)[C@H](O)[C@@H]1O`: the “fold change (FC)” value in the test with 3T3-L1 [1] came out at 1.3. In addition, the Activity in the test on 3T3-L1 [2] amounted to 19%.

Regarding `O[C@H]1[C@H](O)[C@H](O)[C@@H](O)[C@H](O)[C@H]1O`, the “fold change (FC)” value in the test on 3T3-L1 [1] is 1.4 - 2.8. Also, in the test with 3T3-L1 [2], the Activity worked out at 64%.

Consider `O[C@H]1[C@H](O)[C@@H](O)[C@H](O)[C@H](O)[C@H]1O`, for which, in the test with 3T3-L1 [1], the “fold change (FC)” value was 1.5 - 3. The Activity with 3T3-L1 [2] came to 43%.

Consider `CCCCO[C@H]1[C@H](O)[C@H](O)[C@@H](O)[C@H](O)[C@H]1O`, for which, in the test on 3T3-L1 [1], the “fold change (FC)” value was 1.4 - 1.5. Moreover, the Activity in the test on 3T3-L1 [2] was determined as 8%.

For the compound `O[C@H]1[C@H](O)[C@H](O)C[C@H](O)[C@H]1O`, the “fold change (FC)” value with 3T3-L1 [1] is on record as 1.3. Further, the Activity in the test with 3T3-L1 [2] is listed as 40%.

As for `O[C@@H]1[C@@H](O)[C@@H](O)C[C@H](O)[C@H]1O`, the “fold change (FC)” value with 3T3-L1 [1] turned out to be 1.3. Moreover, in the test with 3T3-L1 [2], the Activity was 22%.
